# Earlier results as cited in publication PMC5867622, “Microginins from a Microcystis sp. Bloom Material Collected from the Kishon Reservoir, Israel” (Marine Drugs, 2018).
# Read-outs that look alike come from different tables or passages of the source. Square brackets hold non-standard residues; d marks the D form. Peptide text beside a SMILES is read from it. * marks the point of attachment. X15 = N[C@@H](CCCCCCC(Cl)Cl)[C@H](O)C(=O)*; X1 = N[C@H](CCCCCCC(Cl)Cl)[C@@H](O)C(=O)*; X14 = CCCCCCC[C@@H](N)[C@@H](O)C(=O)*; X6 = N[C@@H](CCCCCCCCl)[C@H](O)C(=O)*; X7 = N[C@H](CCCCCCCCl)[C@@H](O)C(=O)*; X10 = CCCCCCC[C@@H](N)[C@H](O)C(=O)*; NMeY = CN[C@@H](Cc1ccc(O)cc1)C(=O)O; X3 = CCCCCCC[C@H](NC)[C@H](O)C(=O)*; dNMeY = CN[C@H](Cc1ccc(O)cc1)C(=O)O; hTyr = N[C@@H](CCc1ccc(O)cc1)C(=O)O; X12 = N[C@H](CCCCCCC(Cl)Cl)CC(=O)*; X9 = CCCCCCC[C@H](N)[C@H](O)C(=O)*; NMeL = CN[CH](CC(C)C)C(=O)O; X2 = N[C@H](CCCCCCCCl)CC(=O)*; X5 = NC(CCCCCCCCl)C(O)C(=O)*; NMeV = CN[C@H](C(=O)O)C(C)C; X8 = CCCCCCCC(N)C(O)C(=O)*
# Assays:
# APM = details: cited from earlier work; for IC50: Table S1; for Activity: APM (ni): Table S1, 'APM, ACE-ni'
# ACE = details: cited from earlier work
# [1] = ref 9 (Sano et al., Phytochem. 2005), read-out: Activity: APM
# [2] = Table S1, ref 9 (Sano et al., Phytochem. 2005)
# [3] = ref 6 (Ishida et al., Tetrahedron 2000), read-out: Activity: APM
# [4] = Table S1, ref 6 (Ishida et al., Tetrahedron 2000)
# [5] = ref 6 (Ishida et al., Tetrahedron 2000)
# [6] = ref 4 (Ishida et al., Tetrahedron 1998)
# [7] = Table S1, ref 4 (Ishida et al., Tetrahedron 1998)
# [8] = ref 2 (Ishida et al., Tetrahedron 1997), read-out: Activity: APM
# [9] = Table S1, ref 2 (Ishida et al., Tetrahedron 1997)
# [10] = ref 4 (Ishida et al., Tetrahedron 1998), read-out: Activity: APM
# [11] = ref 5 (Kodani et al., FEMS Microbiol. Lett. 1999), read-out: Activity: AMP
# [12] = Table S1, ref 5 (Kodani et al., FEMS Microbiol. Lett. 1999)
compound,measurement,setting,value
CCCCCCC[C@@H](N)[C@H](O)C(=O)N[C@@H](C)C(=O)N[C@H](C(=O)N(C)[C@@H](Cc1ccc(O)cc1)C(=O)N[C@@H](CCc1ccc(O)cc1)C(=O)O)C(C)C [Cyanostatin A] (X10-AV[NMeY][hTyr]-OH),IC50,APM; [1],55 µM
same,IC50,ACE; [2],150 µM
CCCCCCCC(N)C(O)C(=O)NC(Cc1ccc(O)cc1)C(=O)N(C)C(CC(C)C)C(=O)N1CCCC1C(=O)NC(Cc1ccc(O)cc1)C(=O)O (stereo not drawn) [Cyanostatin B] (X8-Y[NMeL]PY-OH; configuration not given here),IC50,APM; [1],16 µM
same,IC50,ACE; [2],170 µM
CCCCCCC[C@H](N)[C@H](O)C(=O)N[C@@H](Cc1ccc(O)cc1)C(=O)N(C)[C@H](C(=O)N(C)[C@@H](Cc1ccc(O)cc1)C(=O)N1CCC[C@@H]1C(=O)N[C@@H](Cc1ccc(O)cc1)C(=O)O)C(C)C [Microginin 51-A] (X9-Y[NMeV][NMeY][dP]Y-OH),IC50,APM; [3],4.9 µM
same,Activity: ACE (ni),ACE; [4],ni
CCCCCCC[C@H](NC)[C@H](O)C(=O)N[C@@H](Cc1ccc(O)cc1)C(=O)N(C)[C@H](C(=O)N(C)[C@@H](Cc1ccc(O)cc1)C(=O)N1CCC[C@@H]1C(=O)N[C@@H](Cc1ccc(O)cc1)C(=O)O)C(C)C [Microginin 51-B] (X3-Y[NMeV][NMeY][dP]Y-OH),Activity: APM (ni),APM; [5],ni
same,Activity: ACE (ni),ACE; [4],ni
CCC(C)C(NC(=O)C(O)C(N)CCCCCCCCl)C(=O)N(C)C(CC(C)C)C(=O)N1CCCC1C(=O)O (stereo not drawn) [Microginin 91-B],Activity: APM (ni),APM; [5],ni
same,Activity: ACE (ni),ACE; [4],ni
CCCCCCC[C@@H](N)[C@@H](O)C(=O)N[C@H](C(=O)N(C)[C@@H](CC(C)C)C(=O)N1CCC[C@H]1C(=O)N[C@@H](Cc1ccc(O)cc1)C(=O)O)[C@@H](C)CC [Microginin 91-C] (X14-I[NMeL]PY-OH),IC50,APM; [3],71.1 µM
same,Activity: ACE (ni),ACE; [4],ni
CC[C@H](C)[C@H](NC(=O)[C@H](O)[C@H](N)CCCCCCCCl)C(=O)N(C)[C@@H](CC(C)C)C(=O)N1CCC[C@H]1C(=O)N[C@@H](Cc1ccc(O)cc1)C(=O)O [Microginin 91-D] (X7-I[NMeL]PY-OH),IC50,APM; [3],43.4 µM
same,Activity: ACE (ni),ACE; [4],ni
CC[C@H](C)[C@H](NC(=O)[C@H](O)[C@H](N)CCCCCCC(Cl)Cl)C(=O)N(C)[C@@H](CC(C)C)C(=O)N1CCC[C@H]1C(=O)N[C@@H](Cc1ccc(O)cc1)C(=O)O [Microginin 91-E] (X1-I[NMeL]PY-OH),IC50,APM; [3],19.5 µM
same,Activity: ACE (ni),ACE; [4],ni
CC(C)C[C@H](NC(=O)[C@H](Cc1ccc(O)cc1)NC(=O)C[C@H](N)CCCCCCCCl)C(=O)N(C)[C@@H](Cc1ccc(O)cc1)C(=O)N1CCC[C@H]1C(=O)O [Microginin 99-A] (X2-YL[NMeY]P-OH),Activity: APM (ni),APM; [6],ni
same,Activity: ACE (ni),ACE; [7],ni
CC(C)C[C@H](NC(=O)[C@H](Cc1ccc(O)cc1)NC(=O)C[C@H](N)CCCCCCC(Cl)Cl)C(=O)N(C)[C@@H](Cc1ccc(O)cc1)C(=O)N1CCC[C@H]1C(=O)O [Microginin 99-B] (X12-YL[NMeY]P-OH),Activity: APM (ni),APM; [6],ni
same,Activity: ACE (ni),ACE; [7],ni
CC(C)[C@H](NC(=O)[C@@H](O)[C@@H](N)CCCCCCCCl)C(=O)N(C)[C@H](C(=O)N(C)[C@@H](Cc1ccc(O)cc1)C(=O)N1CCC[C@H]1C(=O)N[C@@H](Cc1ccc(O)cc1)C(=O)O)C(C)C [Microginin 299-A] (X6-V[NMeV][NMeY]PY-OH),IC50,APM; [8],5.2 µM
same,Activity: ACE (ni),ACE; [9],ni
CC(C)[C@H](NC(=O)[C@@H](O)[C@@H](N)CCCCCCC(Cl)Cl)C(=O)N(C)[C@H](C(=O)N(C)[C@@H](Cc1ccc(O)cc1)C(=O)N1CCC[C@H]1C(=O)N[C@@H](Cc1ccc(O)cc1)C(=O)O)C(C)C [Microginin 299-B] (X15-V[NMeV][NMeY]PY-OH),IC50,APM; [8],7.1 µM
same,Activity: ACE (ni),ACE; [9],ni
CCCCCCC[C@H](N)[C@H](O)C(=O)N[C@H](C(=O)N(C)[C@H](C(=O)N(C)[C@@H](Cc1ccc(O)cc1)C(=O)N1CCC[C@H]1C(=O)N[C@@H](Cc1ccc(O)cc1)C(=O)O)C(C)C)C(C)C [Microginin 299-C] (X9-V[NMeV][NMeY]PY-OH),IC50,APM; [10],2.3 µM
same,Activity: ACE (ni),ACE; [7],ni
CC(C)[C@H](NC(=O)[C@H](O)[C@H](N)CCCCCCC(Cl)Cl)C(=O)N(C)[C@H](C(=O)N(C)[C@H](Cc1ccc(O)cc1)C(=O)N1CCC[C@@H]1C(=O)O)C(C)C [Microginin 299-D] (X1-V[NMeV][dNMeY][dP]-OH),IC50,APM; [10],8.5 µM
same,Activity: ACE (ni),ACE; [7],ni
CCCCCCC[C@H](NC)[C@H](O)C(=O)N[C@H](C(=O)N(C)[C@H](C(=O)N(C)[C@@H](Cc1ccc(O)cc1)C(=O)N[C@@H](Cc1ccc(O)cc1)C(=O)O)C(C)C)C(C)C [Microginin 478] (X3-V[NMeV][NMeY]Y-OH),IC50,APM; [3],132 µM
same,IC50,ACE; [4],13.2 µM
CCCCCCC[C@H](N)[C@H](O)C(=O)N(C)[C@@H](CCSC)C(=O)N[C@@H](Cc1ccc(O)cc1)C(=O)N[C@@H](Cc1ccc(O)cc1)C(=O)O [Microginin 674],Activity,"ACE; Table S1, ref 15 (Product of LKT Laboratories, Inc.)",ACE inhibitor
CCCCCCC[C@H](N)[C@H](O)C(=O)N(C)[C@@H](CC[S+](C)[O-])C(=O)N[C@@H](Cc1ccc(O)cc1)C(=O)N[C@@H](Cc1ccc(O)cc1)C(=O)O (stereo partly drawn) [Microginin 690],Activity,"ACE; Table S1, ref 16 (Product of Santa Cruz Biotechnology)",ACE inhibitor
C[C@H](NC(=O)C(O)C(N)CCCCCCCCl)C(=O)N1CCC[C@H]1C(=O)N[C@@H](Cc1ccc(O)cc1)C(=O)N[C@@H](Cc1ccc(O)cc1)C(=O)O (stereo partly drawn) [Microginin T1] (X5-APYY-OH),IC50,APM; [11],2.7 µM
same,IC50,ACE; [12],6.8 µM
CCCCCCCC(N)C(O)C(=O)N[C@@H](C)C(=O)N1CCC[C@H]1C(=O)N[C@@H](Cc1ccc(O)cc1)C(=O)N[C@@H](Cc1ccc(O)cc1)C(=O)O (stereo partly drawn) [Microginin T2] (X8-APYY-OH),IC50,APM; [11],2.9 µM
same,IC50,ACE; [12],10 µM
CCCCCCCC(N)C(O)C(=O)N[C@@H](C)C(=O)N[C@H](C(=O)N(C)[C@@H](Cc1ccc(O)cc1)C(=O)N[C@@H](Cc1ccc(O)cc1)C(=O)O)C(C)C (stereo partly drawn) [Microginin] (X8-AV[NMeY]Y-OH),Activity,"ACE; Table S1, activity named without value, ref 1 (Okino et al., Tetrahedron Lett. 1993)",ACE
Microginin 91-A,Activity: APM (ni),APM; [5],ni
same,Activity: ACE (ni),ACE; [4],ni
